Data on one substance can be found in patent US6406900B1, “Flea protease proteins, nucleic acid molecules and uses thereof” (Heska Corporation, priority 1991, dated 2002).

This test has as its system flea serine proteases. Nature of the test: in vitro inhibition of flea protease activity. It is filed as biochemical. From the text: In one embodiment, a protease inhibitor that can be used in a composition of the present invention to treat an animal is identified by a method including the following steps: (a) identifying candidate (i.e., putative, possible) inhibitor compounds by testing the efficacy of one or more protease inhibitors (i) in vitro for their ability to inhibit flea protease activity and/or (ii) in a flea feeding assay for their ability to reduce the survival and/or fecundity of fleas by adding the inhibitors to the blood meal of a flea being maintained, for example, in a feeding system, such as that described by Wade et al., 1988, J. Med Entomol. 25, 186-190; and (b) testing the efficacy of the candidate inhibitor compounds in animals infested with fleas. […] Furthermore, candidate inhibitor compounds identified by the flea feeding assays can include not only desired compounds but also compounds that reduce the viability and/or fecundity of fleas due to general toxicity (e.g., affecting the mitochondria of fleas).

In the case of aprotinin, where the note is “in the presence of serum proteins, such as are found in the blood”, the “inhibition of flea serine proteases in the presence of serum proteins” value is listed as “does not work well”. Further, the “inhibition of flea serine proteases” value (in vitro) is listed as “can inhibit at least some flea serine proteases in vitro”.
